Laboratory results taken from the supplement of paper PMC11451515.

Test system: NOMO1
Experiment: cell viability relative to DMSO control; higher = less cytotoxic
Conditions: 48 h
Method in brief: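 Viability was expressed as a per-plate percentage of DMSO wells, with cell-free wells as background. Leukemia cells (NOMO1 or SEM at 500 cells/well, P12-Ichikawa at 1000 cells/well) were adapted for at least four passages in each medium and seeded in 1536-well plates (5 μl). Library compounds in DMSO were pin-dosed over an 11-point threefold series from 47 μM to 0.79 nM, and CellTiter-Glo One luminescence was read after 48 h at 37°C.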

[1] = HPLM + 10% dialyzed FBS, 0.000781 µM
[2] = HPLM + 10% dialyzed FBS, 0.00234 µM
[3] = HPLM + 10% dialyzed FBS, 0.00702 µM
[4] = HPLM + 10% dialyzed FBS, 0.0211 µM
[5] = HPLM + 10% dialyzed FBS, 0.0632 µM
[6] = HPLM + 10% dialyzed FBS, 0.19 µM
[7] = HPLM + 10% dialyzed FBS, 0.569 µM
[8] = HPLM + 10% dialyzed FBS, 1.71 µM
[9] = HPLM + 10% dialyzed FBS, 5.12 µM
[10] = HPLM + 10% dialyzed FBS, 15.4 µM
[11] = HPLM + 10% dialyzed FBS, 46.1 µM
[12] = RPMI 5 mM glucose + 10% FBS, 0.000781 µM
[13] = RPMI 5 mM glucose + 10% FBS, 0.00234 µM
[14] = RPMI 5 mM glucose + 10% FBS, 0.00702 µM
[15] = RPMI 5 mM glucose + 10% FBS, 0.0211 µM
[16] = RPMI 5 mM glucose + 10% FBS, 0.0632 µM
[17] = RPMI 5 mM glucose + 10% FBS, 0.19 µM
[18] = RPMI 5 mM glucose + 10% FBS, 0.569 µM
[19] = RPMI 5 mM glucose + 10% FBS, 1.71 µM
[20] = RPMI 5 mM glucose + 10% FBS, 5.12 µM
[21] = RPMI 5 mM glucose + 10% FBS, 15.4 µM
[22] = RPMI 5 mM glucose + 10% FBS, 46.1 µM
[23] = RPMI 5 mM glucose + 10% dialyzed FBS, 0.000781 µM
[24] = RPMI 5 mM glucose + 10% dialyzed FBS, 0.00234 µM
[25] = RPMI 5 mM glucose + 10% dialyzed FBS, 0.00702 µM
[26] = RPMI 5 mM glucose + 10% dialyzed FBS, 0.0211 µM
[27] = RPMI 5 mM glucose + 10% dialyzed FBS, 0.0632 µM
[28] = RPMI 5 mM glucose + 10% dialyzed FBS, 0.19 µM
[29] = RPMI 5 mM glucose + 10% dialyzed FBS, 0.569 µM
[30] = RPMI 5 mM glucose + 10% dialyzed FBS, 1.71 µM
[31] = RPMI 5 mM glucose + 10% dialyzed FBS, 5.12 µM
[32] = RPMI 5 mM glucose + 10% dialyzed FBS, 15.4 µM
[33] = RPMI 5 mM glucose + 10% dialyzed FBS, 46.1 µM

SMILES	cell viability [1] [%]	cell viability [2] [%]	cell viability [3] [%]	cell viability [4] [%]	cell viability [5] [%]	cell viability [6] [%]	cell viability [7] [%]	cell viability [8] [%]	cell viability [9] [%]	cell viability [10] [%]	cell viability [11] [%]	cell viability [12] [%]	cell viability [13] [%]	cell viability [14] [%]	cell viability [15] [%]	cell viability [16] [%]	cell viability [17] [%]	cell viability [18] [%]	cell viability [19] [%]	cell viability [20] [%]	cell viability [21] [%]	cell viability [22] [%]	cell viability [23] [%]	cell viability [24] [%]	cell viability [25] [%]	cell viability [26] [%]	cell viability [27] [%]	cell viability [28] [%]	cell viability [29] [%]	cell viability [30] [%]	cell viability [31] [%]	cell viability [32] [%]	cell viability [33] [%]
CC1(CN2CCC(n3c(=O)[nH]c4ccccc43)CC2)OCc2ccccc2-n2cccc21 (stereo unspecified)	128	108	102	105	96.8	105	104	108	102	59.3	75.6	86.7	103	95.4	91.4	104	107	91.3	96	92.5	87.8	84	105	111	103	93.2	96.7	98.2	95.9	92.4	90.9	79.5	68.5
CC(C)(S)[C@@H](N)C(=O)O	111	118	97.1	136	132	111	109	133	114	128	80.6	103	106	113	103	118	115	103	105	115	111	106	97.5	94.7	112	115	124	117	108	118	118	108	62.1
CC[N+](CC)(CC)CCOc1cccc(OCC[N+](CC)(CC)CC)c1OCC[N+](CC)(CC)CC	–	–	–	–	–	–	–	–	–	–	–	106	118	108	118	136	110	98	98.9	104	112	75.7	116	118	115	109	127	114	99.4	100	111	101	91
CC(C)=CCC/C(C)=C/CC/C(C)=C/CSc1ccccc1C(=O)O	93.2	119	104	104	116	102	90.4	68.8	76.4	57.4	29.8	103	–	104	103	96.1	99.1	96.2	95.2	86.8	67.9	43.5	98.2	103	109	106	116	97	87	77.1	61.8	64	39.3
NC[C@@H]1O[C@H](O[C@H]2[C@@H](O)[C@H](O[C@@H]3[C@@H](O)[C@H](N)C[C@H](N)[C@H]3O[C@H]3O[C@H](CN)[C@@H](O)[C@H](O)[C@H]3N)O[C@@H]2CO)[C@H](N)[C@@H](O)[C@@H]1O.O=S(=O)(O)O.O=S(=O)(O)O.O=S(=O)(O)O	103	82.8	110	113	101	110	110	106	107	88.5	92.9	95.3	105	99.2	107	111	107	96.8	108	87.2	98.5	94.9	92.2	90.5	86.8	96.1	96.5	85.7	92.8	90.1	89.9	79.4	83
CC1=C(/C=C/C(C)=C/C=C/C(C)=C\C(=O)O)C(C)(C)CCC1	85.3	99.5	85.6	92.5	105	96.2	97.1	84.3	84.2	83.4	97.4	75.9	82.4	78.7	86.3	89.5	97.2	93.6	84.1	84.3	86.6	80.5	82	90.6	86	102	93.2	87.9	95.1	87.2	76.6	87.1	77.3
